{
  "source": "patent US10258598B2",
  "about": "“Compounds for use in the prevention or treatment of cancer” ([…], priority 2014, dated 2019)",
  "key": {"UW-228-2 cell line": {"system": "UW-228-2 cell line", "experiment": "MTT proliferation assay, UW-228-2 medulloblastoma cells", "type": "cell-based, human", "details": "72 hours; for proliferation of cultured cells, monotherapy: nine concentrations between 10^-14 and 10^-6 M, MTT", "procedure": "(§1) Human medulloblastoma cell line, Daoy was purchased from ATCCC, UW-228 was obtained from the courtesy of Professor Silber (University of Washington, Seattle, Wash., USA).\n(§2) Daoy and UW-228-2 cell lines were maintained in culture medium (each 500 ml Minimum Essential Medium Eagle, Alpha Modification (M8042, Sigma, St Louis, USA) with 50 ml FCS (Gibco), 40 mg Gentamicin (Sandoz), 5 ml sodium-pyruvate (S8636, Sigma, St Louis, USA), 5 ml non-essential-amino acid solution (M7145, Sigma, St Louis, USA), 10 ml L-glutamin (Sigma, St Louis, USA) at 37° C. in humified 5% CO2.\n(§3) In each well 3×10^3 Daoy or UW-228-2 cells were seeded in 96-well plates (Sarstedt), solved in 100 µl of its own medium with 10% FCS. 24 hours after seeding, cells were treated for 72 hours by drugs solved in further 100 μl medium. First, both cell lines were treated by (−)-BPAP and (−)-deprenil in monotherapy to determine its dose-effect curves in concentration of 10^−6, 10^−7, […], 10^−9, 10^−10, 10^−11, 10^−12, 10^−13 and 10^−14 M. In combined treatment 10^−3, 3.3×10^−4, […] and 3.7×10^−5 M of temozolomide (Schering Plough, USA) or 0.04, 0.2, 1, 5 μM of Cisplatin (Ebewe Pharma, Austria) or 0.04, 0.2, 1, 5 μM of etoposide (Ebewe Pharma, Austria) or 10^−7, 10^−6, 10^−5 and 10^−4 μM (UW228-2) or 0.001, 0.005, 0.025 and 0.125 μM (Daoy) of Vincristin (Richter Gedeon, Hungary) were applied in monotherapy or combined with 10^−13 or 10^−8 M of (−)-BPAP or (−)-deprenil.\n(§4) Cell proliferation was evaluated by MTT (3-(4,5-Dimethylthiazol-2-yl)-2,5-diphenyltetrazolium bromide) assay (M5655, Sigma) after 72-hour treatment by the method described in manufacturer's protocol."}, "mammary tumors": {"system": "mammary tumors", "details": "ThyagaRajan et al. 1998; cited from earlier work"}, "lung carcinoma": {"system": "lung carcinoma", "experiment": "Longevity study on FVB/N mice: spontaneous lung carcinoma at autopsy", "type": "in vivo", "details": "for Number of detected lung carcinoma: 18 months, saline 3 of 4", "procedure": "Five groups of mice are treated daily from sexual maturity with two different doses of\n(−)-deprenyl and (−)-BPAP, respectively.\nGroup 2: BPAP low dose: 0.0001 mg/kg (−)-BPAP\nGroup 3: BPAP high dose: 0.05 mg/kg (−)-BPAP\nA total of 172 mice entered the experiments. Body weight is measured bimonthly.\nFor monitoring, we planned to sacrifice mice from each group at 6-month, 1-year, 1.5-year and 2-year time-points; the rest of the animals are kept until spontaneous death.\nThe results are shown in Table 4 and on FIGS. 19 and 20. Significance levels were calculated with two-sided Chi-square test."}, "Daoy HTB-186 cell line": {"system": "Daoy HTB-186 cell line", "experiment": "MTT proliferation assay, Daoy medulloblastoma cells", "type": "cell-based, human", "details": "72 hours; for proliferation of cultured cells, monotherapy: nine concentrations between 10^-14 and 10^-6 M, MTT", "procedure": "as §1, §2, §3, §4"}, "[1]": {"system": "Wistar-Logan strain of rats", "details": "cited from earlier work"}, "noradrenergic neurons": {"system": "noradrenergic neurons", "details": "Knoll et al., 1999, cited from earlier work"}, "MAO-A": {"target": "T1, MAO-A (Rattus norvegicus, UniProt P21396)", "T1 construct": "host or cells: animal dosed in mg/kg (in vivo)", "T1 sequence (P21396 1-526)": "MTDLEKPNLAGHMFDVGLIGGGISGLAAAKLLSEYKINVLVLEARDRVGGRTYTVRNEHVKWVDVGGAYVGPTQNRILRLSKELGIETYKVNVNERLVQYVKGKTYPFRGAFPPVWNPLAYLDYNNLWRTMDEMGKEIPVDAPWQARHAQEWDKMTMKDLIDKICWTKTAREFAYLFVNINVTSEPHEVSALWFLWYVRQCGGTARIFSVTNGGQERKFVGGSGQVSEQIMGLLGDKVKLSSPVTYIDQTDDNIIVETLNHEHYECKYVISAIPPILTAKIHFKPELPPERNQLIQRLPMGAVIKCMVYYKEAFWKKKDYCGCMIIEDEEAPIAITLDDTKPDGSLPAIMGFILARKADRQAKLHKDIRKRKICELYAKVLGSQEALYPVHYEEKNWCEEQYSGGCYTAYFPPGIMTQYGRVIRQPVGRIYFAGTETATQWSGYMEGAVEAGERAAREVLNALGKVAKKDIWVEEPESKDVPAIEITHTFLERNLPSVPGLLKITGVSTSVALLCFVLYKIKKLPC", "details": "Knoll et al., 1999; cited from earlier work"}, "[2]": {"details": "10^-13 or 10^-8 M combined with temozolomide, Cisplatin, etoposide or Vincristin"}},
  "data": [
    {"smiles": "C#CCN(C)[C@H](C)Cc1ccccc1", "note": "[(−)-Deprenyl, (R)—N-methyl-N-(1-phenylpropan-2-yl)prop-2-yn-1-amine]", "values": [
      {"measurement": "proliferation of cultured cells, monotherapy", "setting": "UW-228-2 cell line; listed as (−)-deprenyl", "value": "did not inhibit the proliferation"},
      {"measurement": "proliferation of cultured cells, monotherapy", "setting": "UW-228-2 cell line; listed as Deprenyl", "value": "In none of the applied concentrations"},
      {"measurement": "dose inhibiting the development of mammary tumors", "setting": "mammary tumors", "value": "≥ 0.25", "unit": "mg/kg body weight"},
      {"measurement": "Number of detected lung carcinoma", "setting": "lung carcinoma; 0.001 mg/kg daily, 2 dissected mice", "value": 0},
      {"measurement": "Number of detected lung carcinoma", "setting": "lung carcinoma; 0.1 mg/kg daily, 4 dissected mice", "value": 1},
      {"measurement": "proliferation of cultured cells, monotherapy", "setting": "Daoy HTB-186 cell line; listed as (−)-deprenyl", "value": "did not inhibit the proliferation"},
      {"measurement": "proliferation of cultured cells, monotherapy", "setting": "Daoy HTB-186 cell line; listed as Deprenyl", "value": "In none of the applied concentrations"},
      {"measurement": "rats that lived longer than the maximum lifespan ever observed in the strain", "setting": "[1]; out of the 50 treated HP rats", "value": 17, "unit": "rats"},
      {"measurement": "lifespan", "setting": "[1]; sexually high performing (HP) rats treated for life, n=50, saline HP 151.24±1.36", "value": "185.30±1.96", "unit": "weeks"},
      {"measurement": "lifespan versus saline-treated peers", "setting": "[1]; sexually low performing (LP) rats treated for life, n=49, saline LP 134.58±2.29 weeks", "value": "lived significantly longer than their saline treated peers"}
    ]},
    {"smiles": "CCCN[C@H](CCC)Cc1cc2ccccc2o1", "note": "[(−)-BPAP, (R)-1-(benzofuran-2-yl)-2-propylamino pentane]", "values": [
      {"measurement": "concentration range of the non-specific enhancer effect relative to the specific one", "setting": "noradrenergic neurons; Knoll, Miklya, Knoll B, 2002", "value": "10 million times higher concentration range"},
      {"measurement": "concentration range of the specific enhancer effect", "setting": "noradrenergic neurons", "value": "femto/picomolar concentration range"},
      {"measurement": "effectiveness of tumor-cell proliferation inhibiting agents in combination", "setting": "UW-228-2 cell line; [2]", "value": "did not change the effectiveness"},
      {"measurement": "proliferation of cultured cells, monotherapy", "setting": "UW-228-2 cell line", "value": "did not inhibit the proliferation"},
      {"measurement": "proliferation of cultured cells, monotherapy", "setting": "UW-228-2 cell line; listed as BPAP", "value": "In none of the applied concentrations"},
      {"measurement": "dose that blocks the activity of MAO-A", "setting": "MAO-A", "value": "higher than 2 mg/kg"},
      {"measurement": "Number of detected lung carcinoma", "setting": "lung carcinoma; 0.0001 mg/kg daily, 4 dissected mice", "value": 0},
      {"measurement": "Number of detected lung carcinoma", "setting": "lung carcinoma; 0.05 mg/kg daily, 4 dissected mice", "value": 1},
      {"measurement": "manifestation of lung carcinoma", "setting": "lung carcinoma; specific enhancer (extremely low) dose, 18 months daily treatment", "value": "completely prevented"},
      {"measurement": "effectiveness of tumor-cell proliferation inhibiting agents in combination", "setting": "Daoy HTB-186 cell line; [2]", "value": "did not change the effectiveness"},
      {"measurement": "proliferation of cultured cells, monotherapy", "setting": "Daoy HTB-186 cell line", "value": "did not inhibit the proliferation"},
      {"measurement": "proliferation of cultured cells, monotherapy", "setting": "Daoy HTB-186 cell line; listed as BPAP", "value": "In none of the applied concentrations"}
    ]}
  ]
}
